The values below come from PMC10301793 (Marine Drugs, 2023).

Read-outs that look alike come from different tables or passages of the source. Where a SMILES comes first, the peptide text is derived from it. Bridges are numbered along the chain shown (N, C = ends). Where only a bound is given, the exact number is not on record here.

One experiment addresses α6/α3β2β3 nAChR (Rattus norvegicus, UniProt P04757+P12390+P12391+P43143). In words: cell-based.
The next experiment concerns the target α4β2 nAChR (Rattus norvegicus, UniProt P09483+P12390). Nature of the experiment: cell-based.
A further experiment deals with α3β2 nAChR (Rattus norvegicus, UniProt P04757+P12390). Nature of the experiment: cell-based. Format: cell-based.
Sequence of α3β2 nAChR (P04757 26-499 limits assumed): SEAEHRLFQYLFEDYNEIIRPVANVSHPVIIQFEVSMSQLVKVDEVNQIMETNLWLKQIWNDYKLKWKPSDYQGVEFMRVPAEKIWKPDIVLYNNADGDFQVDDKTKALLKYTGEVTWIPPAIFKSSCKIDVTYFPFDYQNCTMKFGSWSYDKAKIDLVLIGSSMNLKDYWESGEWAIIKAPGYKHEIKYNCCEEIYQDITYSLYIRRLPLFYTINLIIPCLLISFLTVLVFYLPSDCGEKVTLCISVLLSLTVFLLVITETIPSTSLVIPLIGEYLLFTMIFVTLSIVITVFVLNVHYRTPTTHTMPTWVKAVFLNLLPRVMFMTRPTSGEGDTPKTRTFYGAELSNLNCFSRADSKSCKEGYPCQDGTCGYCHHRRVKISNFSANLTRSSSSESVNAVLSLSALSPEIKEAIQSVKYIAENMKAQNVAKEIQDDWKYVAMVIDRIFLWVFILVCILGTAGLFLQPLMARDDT
Sequence of α3β2 nAChR (P12390 25-500 limits assumed): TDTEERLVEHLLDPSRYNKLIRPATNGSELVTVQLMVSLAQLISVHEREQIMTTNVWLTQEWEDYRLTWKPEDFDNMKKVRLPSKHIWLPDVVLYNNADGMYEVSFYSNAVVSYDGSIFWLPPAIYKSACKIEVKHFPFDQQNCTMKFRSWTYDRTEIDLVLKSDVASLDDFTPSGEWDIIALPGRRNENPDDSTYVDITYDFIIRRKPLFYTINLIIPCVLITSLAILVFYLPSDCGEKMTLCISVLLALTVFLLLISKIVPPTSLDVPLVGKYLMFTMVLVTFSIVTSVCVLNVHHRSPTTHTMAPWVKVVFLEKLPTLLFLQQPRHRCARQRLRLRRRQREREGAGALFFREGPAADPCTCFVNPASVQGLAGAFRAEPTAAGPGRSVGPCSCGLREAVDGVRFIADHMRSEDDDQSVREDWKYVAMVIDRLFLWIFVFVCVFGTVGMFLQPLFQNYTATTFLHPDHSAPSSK
For the next experiment, the target named is α2β2 nAChR (Rattus norvegicus, UniProt P12389+P12390). Nature of the experiment: cell-based.
Sequence of α2β2 nAChR (P12389 28-511 limits assumed): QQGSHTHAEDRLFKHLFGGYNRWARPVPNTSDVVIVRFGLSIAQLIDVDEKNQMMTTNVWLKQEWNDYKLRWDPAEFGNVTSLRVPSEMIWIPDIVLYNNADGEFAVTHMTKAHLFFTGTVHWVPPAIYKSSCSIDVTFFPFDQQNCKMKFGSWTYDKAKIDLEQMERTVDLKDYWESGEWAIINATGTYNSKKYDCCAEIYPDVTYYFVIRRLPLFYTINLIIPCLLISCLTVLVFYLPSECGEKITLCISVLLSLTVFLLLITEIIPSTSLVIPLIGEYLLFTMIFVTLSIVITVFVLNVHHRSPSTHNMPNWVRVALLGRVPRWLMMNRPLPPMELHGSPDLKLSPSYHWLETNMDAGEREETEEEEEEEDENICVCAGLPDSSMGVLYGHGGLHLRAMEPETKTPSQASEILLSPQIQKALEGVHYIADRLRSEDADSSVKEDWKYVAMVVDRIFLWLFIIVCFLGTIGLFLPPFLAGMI
Sequence of α2β2 nAChR (P12390 25-500 limits assumed): as the sequence (P12390 25-500 limits assumed) above
The target in a further experiment is α7 nAChR (Rattus norvegicus, UniProt Q05941). In words: cell-based.
Sequence of α7 nAChR (Q05941 23-502 limits assumed): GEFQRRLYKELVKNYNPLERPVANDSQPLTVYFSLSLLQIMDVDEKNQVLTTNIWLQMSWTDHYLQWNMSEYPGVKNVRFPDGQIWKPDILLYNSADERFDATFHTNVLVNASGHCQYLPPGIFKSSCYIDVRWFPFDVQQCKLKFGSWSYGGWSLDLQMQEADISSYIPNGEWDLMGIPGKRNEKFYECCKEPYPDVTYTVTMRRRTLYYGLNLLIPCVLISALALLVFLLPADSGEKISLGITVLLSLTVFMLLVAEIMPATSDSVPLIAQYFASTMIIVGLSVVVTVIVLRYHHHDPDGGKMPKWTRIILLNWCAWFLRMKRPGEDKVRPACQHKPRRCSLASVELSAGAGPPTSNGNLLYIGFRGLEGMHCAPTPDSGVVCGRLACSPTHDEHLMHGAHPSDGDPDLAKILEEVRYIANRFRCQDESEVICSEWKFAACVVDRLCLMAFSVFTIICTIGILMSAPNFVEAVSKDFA
The target of the next experiment is α3β4 nAChR (Rattus norvegicus, UniProt P04757+P12392). Nature of the experiment: cell-based.
For a further experiment, the target named is α9α10 nAChR (Rattus norvegicus, UniProt P43144+Q9JLB5). Nature of the experiment: cell-based.
Sequence of α9α10 nAChR (P43144 26-479 limits assumed): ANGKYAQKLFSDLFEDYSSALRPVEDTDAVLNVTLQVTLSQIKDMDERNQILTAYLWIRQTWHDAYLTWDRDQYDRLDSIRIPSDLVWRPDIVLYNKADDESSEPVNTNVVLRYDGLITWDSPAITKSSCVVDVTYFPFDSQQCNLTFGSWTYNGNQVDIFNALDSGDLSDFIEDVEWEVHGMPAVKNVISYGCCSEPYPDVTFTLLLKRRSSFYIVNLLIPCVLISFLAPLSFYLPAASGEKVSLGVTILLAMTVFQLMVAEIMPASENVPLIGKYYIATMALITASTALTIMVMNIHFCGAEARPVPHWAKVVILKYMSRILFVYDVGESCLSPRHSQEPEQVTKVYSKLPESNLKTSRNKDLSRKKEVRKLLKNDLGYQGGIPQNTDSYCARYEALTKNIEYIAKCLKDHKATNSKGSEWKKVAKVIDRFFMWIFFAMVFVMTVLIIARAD
Sequence of α9α10 nAChR (Q9JLB5 25-447 limits assumed): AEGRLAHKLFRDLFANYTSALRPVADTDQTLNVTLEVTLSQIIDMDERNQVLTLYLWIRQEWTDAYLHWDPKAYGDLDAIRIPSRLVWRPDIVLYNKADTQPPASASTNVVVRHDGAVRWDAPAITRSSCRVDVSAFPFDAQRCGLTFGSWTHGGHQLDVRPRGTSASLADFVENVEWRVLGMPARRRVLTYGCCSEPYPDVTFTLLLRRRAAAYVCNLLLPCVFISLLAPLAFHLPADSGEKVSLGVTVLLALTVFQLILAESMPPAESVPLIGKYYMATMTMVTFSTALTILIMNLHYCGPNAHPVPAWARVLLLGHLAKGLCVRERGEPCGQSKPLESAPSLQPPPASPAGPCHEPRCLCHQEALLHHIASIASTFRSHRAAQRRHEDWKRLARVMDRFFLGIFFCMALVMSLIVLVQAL
In the next experiment the test system is other nAChR subtypes. Format: cell-based, rat.

Sequence of α6/α3β2β3 nAChR (P04757 whole entry, looked up): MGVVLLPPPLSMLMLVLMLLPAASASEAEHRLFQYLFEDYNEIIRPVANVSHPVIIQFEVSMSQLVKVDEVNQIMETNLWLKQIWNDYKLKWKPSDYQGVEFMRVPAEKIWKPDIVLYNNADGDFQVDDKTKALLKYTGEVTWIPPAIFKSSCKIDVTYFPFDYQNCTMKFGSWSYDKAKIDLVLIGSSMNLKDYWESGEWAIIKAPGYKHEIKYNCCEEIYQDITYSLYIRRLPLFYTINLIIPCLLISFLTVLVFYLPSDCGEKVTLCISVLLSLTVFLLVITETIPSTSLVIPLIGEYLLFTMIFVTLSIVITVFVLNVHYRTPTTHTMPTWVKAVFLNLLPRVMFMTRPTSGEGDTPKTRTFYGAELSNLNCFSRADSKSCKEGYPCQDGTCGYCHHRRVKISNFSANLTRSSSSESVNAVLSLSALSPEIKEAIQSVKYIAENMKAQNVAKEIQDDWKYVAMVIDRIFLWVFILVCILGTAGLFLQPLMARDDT
Sequence of α6/α3β2β3 nAChR (P12390 whole entry, looked up): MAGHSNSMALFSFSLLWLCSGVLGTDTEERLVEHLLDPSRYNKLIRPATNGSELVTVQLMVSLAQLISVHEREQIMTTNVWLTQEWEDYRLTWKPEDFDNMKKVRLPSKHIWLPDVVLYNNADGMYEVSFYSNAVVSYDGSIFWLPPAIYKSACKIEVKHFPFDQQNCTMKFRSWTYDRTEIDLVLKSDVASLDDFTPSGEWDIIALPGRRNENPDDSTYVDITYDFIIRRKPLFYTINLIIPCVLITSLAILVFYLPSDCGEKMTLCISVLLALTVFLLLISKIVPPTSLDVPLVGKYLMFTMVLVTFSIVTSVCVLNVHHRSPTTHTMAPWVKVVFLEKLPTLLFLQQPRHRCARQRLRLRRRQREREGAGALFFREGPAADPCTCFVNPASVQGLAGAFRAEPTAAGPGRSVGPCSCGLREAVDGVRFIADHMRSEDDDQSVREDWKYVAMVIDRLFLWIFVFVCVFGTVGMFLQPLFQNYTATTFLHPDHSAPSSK
Sequence of α6/α3β2β3 nAChR (P12391 whole entry, looked up): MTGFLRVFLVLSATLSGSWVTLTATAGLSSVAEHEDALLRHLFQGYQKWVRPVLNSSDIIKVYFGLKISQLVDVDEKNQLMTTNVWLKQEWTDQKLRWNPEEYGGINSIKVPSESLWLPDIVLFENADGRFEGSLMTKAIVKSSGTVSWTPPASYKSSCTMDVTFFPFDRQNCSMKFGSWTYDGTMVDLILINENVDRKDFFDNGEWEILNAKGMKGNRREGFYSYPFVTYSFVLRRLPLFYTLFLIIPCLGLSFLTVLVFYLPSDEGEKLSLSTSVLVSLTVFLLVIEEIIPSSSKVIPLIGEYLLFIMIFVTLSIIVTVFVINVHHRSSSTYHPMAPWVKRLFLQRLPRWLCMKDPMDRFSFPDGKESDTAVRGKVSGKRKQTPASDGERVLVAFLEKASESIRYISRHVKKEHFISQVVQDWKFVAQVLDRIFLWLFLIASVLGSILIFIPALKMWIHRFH
Sequence of α6/α3β2β3 nAChR (P43143 whole entry, looked up): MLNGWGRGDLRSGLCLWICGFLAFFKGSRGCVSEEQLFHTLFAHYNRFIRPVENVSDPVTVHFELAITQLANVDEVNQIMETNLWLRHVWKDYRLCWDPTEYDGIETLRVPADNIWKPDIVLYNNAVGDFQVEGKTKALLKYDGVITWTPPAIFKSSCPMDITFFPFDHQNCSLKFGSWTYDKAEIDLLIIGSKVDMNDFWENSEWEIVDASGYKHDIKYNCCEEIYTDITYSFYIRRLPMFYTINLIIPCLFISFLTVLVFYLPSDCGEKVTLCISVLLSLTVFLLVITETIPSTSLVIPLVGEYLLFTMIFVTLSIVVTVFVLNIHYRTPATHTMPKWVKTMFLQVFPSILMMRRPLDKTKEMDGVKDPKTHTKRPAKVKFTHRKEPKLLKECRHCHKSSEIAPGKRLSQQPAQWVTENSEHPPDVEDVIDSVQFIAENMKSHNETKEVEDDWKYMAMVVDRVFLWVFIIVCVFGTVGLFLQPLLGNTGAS

What is called inhibition is the change of the read-out against control, counted positive when it falls. A low value points to a response near the control. Regarding `CC(C)C[C@@H]1NC(=O)[C@H](C(C)C)NC(=O)[C@H](C)NC(=O)[C@@H]2CSSC[C@H](NC(=O)CN)C(=O)N[C@@H](CSSC[C@@H](C(N)=O)NC(=O)[C@H](Cc3c[nH]cn3)NC1=O)C(=O)N[C@@H](CO)C(=O)N[C@@H]([C@@H](C)O)C(=O)N1CCC[C@H]1C(=O)N1CCC[C@H]1C(=O)N2` [AdIA] (H-GCCSTPPCAVLHC-NH2; disulfide 2-8, 3-13), the “Hill Slope” value on α6/α3β2β3 nAChR is recorded as −1.14; on α3β2 nAChR, −1.24. Also, the IC50 was 0.177 µM against α6/α3β2β3 nAChR; over 0.01 µM at α4β2 nAChR; 1.38 µM at α3β2 nAChR; over 0.01 µM against α2β2 nAChR; over 0.01 µM at α7 nAChR; over 0.01 µM on α3β4 nAChR. The IC50 on α9α10 nAChR was over 0.01 µM; with other nAChR subtypes (read-out: potency) it was over 10 µM. In addition, the “fold lower potency than at α6/α3β2β3” value on α3β2 nAChR is “at least 8 fold”. In addition, the inhibition with other nAChR subtypes is listed as at most 50%.

For the molecule `C[C@@H]1NC(=O)[C@@H]2CCCN2C(=O)[C@H](Cc2c[nH]cn2)NC(=O)[C@@H]2CSSC[C@@H](C(N)=O)NC(=O)[C@H](CC(N)=O)NC(=O)[C@H](Cc3ccc(O)cc3)NC(=O)[C@H](CCCCN)NC(=O)[C@H](CCCNC(=N)N)NC(=O)CNC(=O)[C@H](CSSC[C@H](NC(=O)[C@H](CCCNC(=N)N)NC(=O)CN)C(=O)N2)NC1=O` [GaIA] (H-GRCCHPACGRKYNC-NH2; disulfide 3-8, 4-14), the “Hill Slope” value on α6/α3β2β3 nAChR is given as −0.87; at α4β2 nAChR, −1.28; at α3β2 nAChR, −1.25; at α2β2 nAChR, −1.09; on α7 nAChR, −1.45; on α3β4 nAChR, −1.37. On α9α10 nAChR, the “Hill Slope” value is −0.93. The “fold less potency than at muscle-type α1β1γδ” value at α3β2 nAChR is listed as “about 25 fold”. The results for the IC50 at α9α10 nAChR and in the experiment on other nAChR subtypes (read-out: IC50) were 0.777 µM and over 1 µM, respectively.
